# Laboratory results: patent US20100048594A1, “USE OF CYTOHESIN INHIBITORS FOR CHEMICALLY INDUCING LONGEVITY” (RHEINISCHE FRIEDRICH-WILHELMS UNIVERSITAT, priority 2006, published 2010)
# What was measured:
# [1] = tested on: Akt; experiment: Insulin-dependent phosphorylation of Akt in HepG2 cells (immunoblot); assay type: cell-based, human; settings: 100 nM insulin
# Description: Human hepG2 cells (ECACC) were cultivated in EMEM medium (Cambrex) with the addition of 10% fetal calf serum. 10^5 cells were seeded in 2 ml medium in 6 well plates and were cultivated at 37° C. in a moist atmosphere with 5% CO2 for 1 to 3 days, before being used for experiments.
# The expression of IGFBP1 (insulin-like growth factor binding protein) is controlled by insulin via the forkhead box transcription factors O1A (FoxO1A) and O3A (FoxO3A). Following insulin stimulation, the protein kinase B/Akt (PKB/Akt) is activated via phosphorylation, based upon the phosphoinositide-3-kinase (PI3K), reaches the nucleus where it phosphorylates the transcription factor O1A (FoxO1A), which leads to a decrease in the gene expression of IGFBP1, for example.
# For human HepG2 cells (ECACC), serum was removed from the medium for 90 minutes, the cells were incubated for another 60 minutes with 5 μM, 10 μM and 15 μM of the compound according to formula (9), 200 nM Wortmannin or DMSO (dimethylsulfoxide) at a corresponding concentration, after which the cells were stimulated for 10 minutes with 100 nM insulin. The cells were then lysed in lysate buffer (20 mM Tris-Cl, pH 7.5, 150 mM NaCl, 1 mM EDTA, 1 mM EGTA, 2.5 mM sodium pyrophosphate, 1 mM β-glycerophosphate, 1 mM sodium vanadate, 1% Triton X-100) and protease inhibitor mix HP (Serva).
# Standardized quantities of protein were separated out using SDS-PAGE, and were transferred to nitrocellulose membranes. For protein identification via immunoblotting, an antibody was used against the phosphorylated protein Akt, pAkt (Thr308) (cell signaling). Visualization was carried out using the Enhanced Chemiluminescence System (Millipore) using a VersaDoc 5000 CCD camera (BioRad), and the intensity of the bands was quantified using the QuantityOne software (BioRad).
# [2] = tested on: genes that are controlled via the PI3K-dependent pathway of the insulin receptor signaling pathway; experiment: Expression of insulin-regulated gluconeogenic and glycolytic genes in mouse liver after feeding (quantitative PCR); assay type: in vivo, C57BL/6 mice; settings: food with 0.9 μmol/g compound for 3 days, 40 μg insulin i.p.
# Excerpt: (§1) C57BL/6 mice (Charles River Laboratories) that had been kept in a pathogen-free animal facility, maintaining a 12-hour light/dark cycle, were used. The animals received standard mouse food (19% protein, 3.3% fat, 41.3% carbohydrates; ssniff Spezialdiäten GmbH) ad libitum. Male animals between the ages of 8 and 12 weeks were used.
# A group of 6 C57BL/6 mice received standard mouse food mixed with 0.9 μmol/g of the compound according to formula (9) for a period of 3 days, while a control group of 6 animals received standard mouse food. The animals were then injected intraperitoneally with 100 μl normal saline solution (control group) or saline solution with 40 μg recombinant human insulin (Sigma). […]
# Total RNA from 15 mg mouse liver in each case was isolated using the Absolutely RNA Kit (Stratagene) and the cDNA was produced via the reverse transcription of 2 μg RNA using the High Capacity cDNA Archive Kit (Applied Biosystems), according to the manufacturer's instructions. Quantitative PCR was performed in 10 μl batches in an iQ5-Cycler (BioRad) by means of the TaqMan Gene Expression Assay (Applied Biosystems) using primers (Applied Biosystems), against lgfbp1, Fbp2, Pck1, Pck2, G6 pc, Hk2, Pklr, Gck, Gckr, according to the manufacturer's instructions. […]
# [3] = tested on: Akt; experiment: Insulin-stimulated phosphorylation of Akt in mouse liver after feeding (immunoblot); assay type: in vivo, C57BL/6 mice; settings: food with 0.9 μmol/g compound for 3 days, 40 μg insulin i.p.
# Excerpt: as §1
# A group of 6 C57BL/6 mice received standard mouse food mixed with 0.9 μmol/g of the compound according to formula (9) for a period of 3 days, while a control group of 6 animals received standard mouse food. The animals were then injected intraperitoneally with 100 μl normal saline solution (control group) or saline solution with 40 μg recombinant human insulin (Sigma). After 10 minutes the mice were anesthetized, the livers were removed and were lysed in lysate buffer (20 mM Tris-Cl, pH 7.5, 150 mM NaCl, 1 mM EDTA, 1 mM EGTA, 2.5 mM sodium pyrophosphate, 1 mM β-glycerophosphate, 1 mM sodium vanadate, 1% Triton X-100) and protease inhibitor mix HP (Serva).
# Further, standardized quantities of protein were separated out using SDS-PAGE, and this protein was identified via immunoblotting, after being transferred to nitrocellulose membranes, with an antibody, against the phosphorylated protein Akt, pAkt (Thr308) (cell signaling). Visualization and evaluation were performed as described in Example 2.
# [4] = tested on: 1nR (insulin receptor); experiment: Expression of insulin-repressed gene 1nR (insulin receptor) in fed Drosophila larvae (real-time PCR); assay type: in vivo; settings: 10 mg compound per 1 g brewer's yeast, 3 days
# Description: Three groups of 100 Drosophila larvae received 10 mg of the compound according to formula (9) mixed with 1 g autoclaved and pulverized brewer's yeast (Brewferm), while three control groups of 100 animals each received the uncut brewer's yeast. This food was administered on water-impregnated filters (Macherey-Nagel) for 3 days at 25° C.
# In each case, more than 10 animals of the group were washed thoroughly with water, placed in lysate buffer (NucleoSpin RNA II kit, Macherey & Nagel), and homogenized for 1 minute at maximum speed (Ultra-Turrax T25basic). Total RNA was isolated using the NucleoSpin RNA II Kit (Macherey & Nagel, including DNase I-treatment on the column).
# cDNA was produced from each 500 ng total RNA using the QuantiTect Reverse Transcription Kit (Qiagen), according to the manufacturer's instructions, including DNase I treatment. PCR was performed in batches with a total volume of 25 μl (iQ5 Real Time PCR Detection System, BioRad). The batches contained 1 μl of the cDNA batch, in each case 200 nM and 3′- and 5′-primer (Metabion) 12.5 μl 2×iQ5 SYBR Green Supermix (BioRad).
# The PCR program that was used comprised 40 cycles with the following steps: 15 seconds denaturing at 95° C., 30 seconds annealing at 59° C. and 30 seconds extension at 72° C. Evaluation was carried out using the iQ5 Optical System software (Version 1.1.1442.OCR, BioRad). […]
smiles,measurement,setting,value
COc1nc(-c2ccc3c(c2)OCO3)n(-c2ccc(NC(=O)CSc3ccccc3)cc2)n1 [Compound (9)],reduction in the phosphorylation of Akt as compared with phosphorylation following insulin stimulation,"[1]; HepG2 cells, 10 μM compound",50%
same,phosphorylation of Akt as % of the phosphorylation following insulin stimulation,"[1]; HepG2 cells, 15 μM compound",approximately 25%
same,insulin-dependent phosphorylation of Akt,"[1]; HepG2 cells, 5, 10, 15 μM compound, based upon concentration",inhibited
same,expression of the glycolytic gene induced by insulin,[2],decreased to a statistically significant degree
same,"expression of the studied gluconeogenic gene, suppressed by insulin",[2],increased
same,inhibition of the phosphorylation of the protein Akt stimulated by insulin,[3],approximately 40%
same,expression of insulin-repressed gene 1nR (insulin receptor),[4],more than double
